According to publication PMC2992884 (Cell metabolism, 2010):

Target: T1, ACS-3 (Caenorhabditis elegans, UniProt O44560)
T1 sequence (O44560 1-653): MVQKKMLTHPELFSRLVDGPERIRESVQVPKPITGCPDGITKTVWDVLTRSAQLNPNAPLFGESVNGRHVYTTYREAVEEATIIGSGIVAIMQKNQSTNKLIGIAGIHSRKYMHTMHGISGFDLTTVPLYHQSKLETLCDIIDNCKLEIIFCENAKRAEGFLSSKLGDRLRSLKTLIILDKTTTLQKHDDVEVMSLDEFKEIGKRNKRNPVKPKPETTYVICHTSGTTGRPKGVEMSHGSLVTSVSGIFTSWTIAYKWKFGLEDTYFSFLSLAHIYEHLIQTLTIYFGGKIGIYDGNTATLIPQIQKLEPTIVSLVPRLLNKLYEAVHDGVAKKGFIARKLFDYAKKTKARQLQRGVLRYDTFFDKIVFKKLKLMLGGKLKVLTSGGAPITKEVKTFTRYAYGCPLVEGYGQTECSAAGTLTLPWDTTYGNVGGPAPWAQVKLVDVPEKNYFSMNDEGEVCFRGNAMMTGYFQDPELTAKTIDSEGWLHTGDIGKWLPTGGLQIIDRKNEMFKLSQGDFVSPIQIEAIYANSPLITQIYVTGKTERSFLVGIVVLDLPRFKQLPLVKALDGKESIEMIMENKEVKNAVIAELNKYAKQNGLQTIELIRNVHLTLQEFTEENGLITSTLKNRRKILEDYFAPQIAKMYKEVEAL
Experiment: acyl-CoA oxidase/catalase coupled colorimetric assay, […] nm
Type: biochemical
Conditions: with free long-chain fatty acid (18-carbon preferred)

**Q.** CC(C)(COP(=O)(O)OP(=O)(O)OC[C@H]1O[C@@H](n2cnc3c(N)ncnc32)[C@H](O)[C@@H]1OP(=O)(O)O)[C@@H](O)C(=O)NCCC(=O)NCCS [CoA] was tested. Which “acyl-CoA oxidase/catalase coupled colorimetric assay, 550 nm” value did it give?
**A.** ACS activity generates acyl-CoA species from free fatty acid and CoA
